Several values for one entry are separate records, joined by “and”; a condition that tells them apart may be missing. Identical values can stand only once. Like-named read-outs stand apart in the source and are kept apart here. *1 amine or outer side, *2 acyl side, *3 side chain or, on linkers, in order; H or OH if unused. [ ]: non-standard residue; d: D form. The star is where a group is joined. C20 diacid = O=C(O)CCCCCCCCCCCCCCCCCCC(=O)*; γGlu = O=C(O)[C@H](CCC(=O)[*:2])N[*:1]; εLys = N[C@@H](CCCCN[*:1])C(=O)[*:2]; αMeL = CC(C)C[C@](C)(N)C(=O)O; AEEA = NCCOCCOCC(=O)O; Aib = CC(C)(N)C(=O)O
Legend:
[1] = Pharmacokinetics in Sprague Dawley rats, single subcutaneous or intravenous dose (incl. 10, 30, 100 nmol/kg dose response); assay type: in vivo
[2] = tested on: MHC-II presented peptides on human dendritic cells; assay: MAPPS assay (MHC-Associated Peptide Proteomics); assay type: cell-based
Summary of the method: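 Peptides eluted from anti-MHC-II immunoprecipitates of day-6 DC lysates were sequenced by MS, mapped onto the parent test molecule, and scored as percentage of donors presenting each region. DCs derived from donor CD14+ cells (IL-4, GM-CSF) received test molecules on day 4, then LPS maturation on day 5.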

[3] = dose response, single subcutaneous dose 10 nmol/kg, male Sprague Dawley rats, individual animal
[4] = dose response, single subcutaneous dose 30 nmol/kg, male Sprague Dawley rats, individual animal
[5] = dose response, single subcutaneous dose 100 nmol/kg, male Sprague Dawley rats, individual animal
[6] = male Sprague Dawley rats, single intravenous dose 190 nmol/kg, individual animal
[7] = male, Sprague Dawley, rat, plasma, iv, 190 nmol/kg, single intravenous dose 190 nmol/kg, Mean
[8] = male, Sprague Dawley, rat, plasma, iv, 190 nmol/kg, single intravenous dose 190 nmol/kg, individual animal
[9] = single subcutaneous dose 190 nmol/kg, male Sprague Dawley rats, individual animal

Substance: {C20 diacid-εLys-AEEA-γGlu}-GSPSIVTS[αMeL]DVPT[Aib][αMeL]LQKILEQERAEKARQQATEAAEILAQV-NH2 [SEQ ID NO: 25]
- AUC0-inf [1, 3]: 1.05 µM·h and 0.972 µM·h and 1.11 µM·h
- CL/F [1, 3]: 0.175 mL/min/kg and 0.152 mL/min/kg
- Cmax [1, 3]: 0.0208 µM and 0.0219 µM and 0.0268 µM
- T1/2 [1, 3]: 18.6 h and 31.5 h
- Tmax [1, 3]: 6 h
- AUC0-inf [1, 4]: 2.64 µM·h and 2.91 µM·h and 2.96 µM·h
- CL/F [1, 4]: 0.173 mL/min/kg and 0.17 mL/min/kg
- Cmax [1, 4]: 0.055 µM and 0.068 µM and 0.0591 µM
- T1/2 [1, 4]: 19.6 h and 20.8 h
- Tmax [1, 4]: 6 h
- AUC0-inf [1, 5]: 12.5 µM·h and 14 µM·h and 13.4 µM·h
- CL/F [1, 5]: 0.119 mL/min/kg and 0.124 mL/min/kg
- Cmax [1, 5]: 0.239 µM and 0.316 µM and 0.328 µM
- T1/2 [1, 5]: 17.4 h and 15.7 h
- AUC0-inf [1, 6]: 41.3 µM·h and 46.9 µM·h and 61.8 µM·h
- C0 [1, 6]: 1.61 µM and 3.54 µM and 3.61 µM
- CL [1, 6]: 0.0673 mL/min/kg and 0.0512 mL/min/kg
- T1/2 [1, 6]: 16.9 h and 18.2 h
- clearance [1, 7]: 0.065 mL/min/kg
- half-life [1, 7]: 17.5 h
- clearance [1, 8]: 0.0765 mL/min/kg
- half-life [1, 8]: 17.4 h
- half-life ([1]; male, Sprague Dawley, rat, plasma, sc, 10 nmol/kg, dose response, single subcutaneous dose 10 nmol/kg, individual animal): 19.9 h
- CL/F ([1]; male, Sprague Dawley, rat, plasma, sc, 10 nmol/kg, dose response, single subcutaneous dose 10 nmol/kg, individual animal, read-out: CL/F (converted)): 0.162 mL/min/kg
- half-life ([1]; male, Sprague Dawley, rat, plasma, sc, 10 nmol/kg, dose response, single subcutaneous dose 10 nmol/kg, mean): 23.3 h
- CL/F ([1]; male, Sprague Dawley, rat, plasma, sc, 10 nmol/kg, dose response, single subcutaneous dose 10 nmol/kg, mean, read-out: CL/F (converted)): 0.163 mL/min/kg
- Tmax ([1]; male, Sprague Dawley, rat, plasma, sc, 10 nmol/kg, dose response, single subcutaneous dose 10 nmol/kg, mean, read-out: Tmax): 18 h
- half-life ([1]; male, Sprague Dawley, rat, plasma, sc, 30 nmol/kg, dose response, single subcutaneous dose 30 nmol/kg, individual animal): 19.2 h
- CL/F ([1]; male, Sprague Dawley, rat, plasma, sc, 30 nmol/kg, dose response, single subcutaneous dose 30 nmol/kg, individual animal, read-out: CL/F (converted)): 0.19 mL/min/kg
- half-life ([1]; male, Sprague Dawley, rat, plasma, sc, 30 nmol/kg, dose response, single subcutaneous dose 30 nmol/kg, mean): 19.9 h
- CL/F ([1]; male, Sprague Dawley, rat, plasma, sc, 30 nmol/kg, dose response, single subcutaneous dose 30 nmol/kg, mean, read-out: CL/F (converted)): 0.178 mL/min/kg
- Tmax ([1]; male, Sprague Dawley, rat, plasma, sc, 30 nmol/kg, dose response, single subcutaneous dose 30 nmol/kg, mean, read-out: Tmax): 18 h
- half-life ([1]; male, Sprague Dawley, rat, plasma, sc, 100 nmol/kg, dose response, single subcutaneous dose 100 nmol/kg, individual animal): 16 h
- CL/F ([1]; male, Sprague Dawley, rat, plasma, sc, 100 nmol/kg, dose response, single subcutaneous dose 100 nmol/kg, individual animal, read-out: CL/F (converted)): 0.133 mL/min/kg
- Tmax ([1]; male, Sprague Dawley, rat, plasma, sc, 100 nmol/kg, dose response, single subcutaneous dose 100 nmol/kg, individual animal, read-out: Tmax): 24 h
- half-life ([1]; male, Sprague Dawley, rat, plasma, sc, 100 nmol/kg, dose response, single subcutaneous dose 100 nmol/kg, mean): 16.4 h
- CL/F ([1]; male, Sprague Dawley, rat, plasma, sc, 100 nmol/kg, dose response, single subcutaneous dose 100 nmol/kg, mean, read-out: CL/F (converted)): 0.126 mL/min/kg
- Tmax ([1]; male, Sprague Dawley, rat, plasma, sc, 100 nmol/kg, dose response, single subcutaneous dose 100 nmol/kg, mean, read-out: Tmax): 24 h
- half-life ([1]; male, Sprague Dawley, rat, plasma, sc, 190 nmol/kg, single subcutaneous dose 190 nmol/kg, individual animal): 14.8 h
- CL/F ([1]; male, Sprague Dawley, rat, plasma, sc, 190 nmol/kg, single subcutaneous dose 190 nmol/kg, individual animal, read-out: CL/F (converted)): 0.136 mL/min/kg
- Tmax ([1]; male, Sprague Dawley, rat, plasma, sc, 190 nmol/kg, single subcutaneous dose 190 nmol/kg, individual animal, read-out: Tmax): 24 h
- half-life ([1]; male, Sprague Dawley, rat, plasma, sc, 190 nmol/kg, single subcutaneous dose 190 nmol/kg, mean): 14.4 h
- CL/F ([1]; male, Sprague Dawley, rat, plasma, sc, 190 nmol/kg, single subcutaneous dose 190 nmol/kg, mean, read-out: CL/F (converted)): 0.137 mL/min/kg
- Tmax ([1]; male, Sprague Dawley, rat, plasma, sc, 190 nmol/kg, single subcutaneous dose 190 nmol/kg, mean, read-out: Tmax): 24 h
- AUC0-inf ([1]; rat, plasma, sc, dose response, single subcutaneous dose 10 nmol/kg, male Sprague Dawley rats, mean, read-out: AUC0-inf): 1.04 µM·h
- Cmax ([1]; rat, plasma, sc, dose response, single subcutaneous dose 10 nmol/kg, male Sprague Dawley rats, mean, read-out: Cmax): 0.0232 µM
- AUC0-inf ([1]; rat, plasma, sc, dose response, single subcutaneous dose 30 nmol/kg, male Sprague Dawley rats, mean, read-out: AUC0-inf): 2.84 µM·h
- Cmax ([1]; rat, plasma, sc, dose response, single subcutaneous dose 30 nmol/kg, male Sprague Dawley rats, mean, read-out: Cmax): 0.0607 µM
- AUC0-inf ([1]; rat, plasma, sc, dose response, single subcutaneous dose 100 nmol/kg, male Sprague Dawley rats, mean, read-out: AUC0-inf): 13.3 µM·h
- Cmax ([1]; rat, plasma, sc, dose response, single subcutaneous dose 100 nmol/kg, male Sprague Dawley rats, mean, read-out: Cmax): 0.294 µM
- AUC0-inf ([1]; rat, plasma, sc, single subcutaneous dose 190 nmol/kg, male Sprague Dawley rats, mean, read-out: AUC0-inf): 23.2 µM·h
- Cmax ([1]; rat, plasma, sc, single subcutaneous dose 190 nmol/kg, male Sprague Dawley rats, mean, read-out: Cmax): 0.508 µM
- AUC0-inf ([1]; rat, plasma, male Sprague Dawley rats, single intravenous dose 190 nmol/kg, Mean, read-out: AUC0-inf): 50 µM·h
- C0 ([1]; rat, plasma, male Sprague Dawley rats, single intravenous dose 190 nmol/kg, Mean, read-out: C0): 2.92 µM
- AUC0-inf [1, 9]: 23.4 µM·h and 21.6 µM·h and 24.7 µM·h
- CL/F [1, 9]: 0.147 mL/min/kg and 0.128 mL/min/kg
- Cmax [1, 9]: 0.466 µM and 0.475 µM and 0.582 µM
- T1/2 [1, 9]: 13.9 h and 14.5 h
- MAPPS Assay >10 donors with diverse MHC ([2]; donors displaying MHC-II peptides / donors tested): 0/10
- peptides displayed on MHC-II complexes ([2]; human dendritic cells from normal donors): no peptides displayed on MHC-II complexes
- immunogenicity compared with SEQ ID NO:54 ([2]; in the MAPPs assay and/or the T cell proliferation assay): substantial improvements in immunogenicity over a compound comprising SEQ ID NO:54
- MAPPS Assay >10 donors with diverse MHC ([2]; percentage of donors displaying MHC-II peptides): 0%

Source: patent US20250163119A1, “COMPOUNDS FOR THE TREATMENT OF DIABETES OR OBESITY” (Eli Lilly and Company, priority 2023, published 2025)
